Publication PMC6017477, “In Vitro ADME Properties of Two Novel Antimicrobial Peptoid-Based Compounds as Potential Agents against Canine Pyoderma” (Molecules : A Journal of Synthetic Chemistry and Natural …, 2018)

Experiments:
dog plasma proteins [1] = experiment: Plasma protein binding, rapid equilibrium dialysis; type: in vitro ADME; settings: dog plasma, 4 h incubation
Procedure: The plasma protein binding properties of candidate drugs can influence their efficacy, safety, and distribution. The fraction of peptoid bound to proteins of plasma collected from dogs was determined using rapid equilibrium dialysis.
Plate inserts comprised two side-by-side chambers separated by a dialysis membrane (8K MWCO). The chambers contained […] plasma or 350 µL dialysis buffer (PBS buffer pH 7.4), respectively. Dogplasma lot was identical to the one used in the plasma stability assay. […] Plates were sealed and incubated at 37 °C for 4 h on a shaker. Each test was run in quadruplicate in dog plasma. Upon completion of the assay, the plasma protein binding was determined by protein precipitation with ACN of both plasma and PBS, and drug levels were quantified via LC-MS/MS as described above. The percentage of bound compounds was determined from peak areas using Equations (3) and (4):% free = (concentration buffer chamber/concentration plasma chamber) × 100%(3) % bound = 100% − % free(4)

dog plasma proteins [2] = settings: stated in the method for the control; no reference given; cited from earlier work

Compound: CS(=O)(=O)CC(=O)N1CC2(C1)OCc1cc(C3=NO[C@@](c4cc(Cl)c(F)c(Cl)c4)(C(F)(F)F)C3)ccc12 [Control, sarolaner, reference compound]
- % Unbound (free fraction) (dog plasma proteins [1]; 37 °C): 0.27%
- Bound to plasma proteins (dog plasma proteins [1]; 37 °C): 99.7%
- % Average Recovery (dog plasma proteins [1]; n = 4): 67.1%
- protein bound (known value of the control compound) (dog plasma proteins [2]): > 99%
